Laboratory results: publication PMC8138013, “Rational design of innate defense regulator peptides as tumor vaccine adjuvants” (NPJ Vaccines, 2021)

How the values were obtained:
[1] = test system: JAWSII cells; experiment: RT-qPCR of transcription factor mRNA after DP7, with or without chemical inhibitors; assay type: cell-based, mouse; settings: for effect of inhibitor on DP7-induced mRNA expression of transcription factors: pretreatment 1 h at 10 μM (BIBR796 5 μM) or PTX 200 ng/ml 3 h, then DP7 30 min, compared to DP7 alone
Method: [The procedure below names another cell line; the source lists this cell line under the same test.] Small molecule inhibitors were employed to elucidate the upstream signaling pathways involved in the expression of 6 transcription factors: selumetinib (MEK1/2 inhibitor), BIBR796 (p38α inhibitor), sp600125 (pan JNK inhibitor), XMD8-92 (Erk5 inhibitor), sotrastaurin (PKCθ inhibitor), AS-605240 (PI3Kγ inhibitor), LY294002 (PI3Kα/β/γ inhibitor) and pertussis toxin (PTX, Gi protein inhibitor). BMDCs were pretreated with 10 μM selumetinib, 5 μM BIBR796, 10 μM sp600125, 10 μM XMD8-92, 10 μM sotrastaurin, 10 μM AS-605240, and 10 μM LY294002 at 37 °C for 1 h and with 200 ng/ml PTX at 37 °C for 3 h. BMDCs were exposed to DP7 at 37 °C for 30 min, and then the mRNA expression of the transcription factors was examined by RT-qPCR.
Total RNA was isolated using TRIzol reagent (Takara, Otsu, Japan), further purified by isopropanol/ethanol precipitation and finally dissolved in RNase-Free H2O. cDNA was prepared with 5× All-In-One MasterMix with the AccuRT Genomic DNA Removal Kit (Abm Canada Inc., Milton, ON, Canada) and employed as a template to assess the expression of various genes with EvaGreen 2× qPCR MasterMix (Abm Canada Inc., Milton, ON, Canada). The results were analyzed according to the relative expression normalized against β-actin.

[2] = test system: JAWSII cells; experiment: Intracellular calcium measurement (Fluo 3-AM); assay type: cell-based, mouse; settings: DP7 40 µg/ml, 15 and 30 min
Method: JAWSII cells (1 × 10^5) were seeded into 96-well clear–bottom black plates (Corning, New York, USA.) with six replicate wells per condition and cultured at 37 °C overnight. The cells were washed once with Hank’s buffer followed by incubation with the calcium fluorescence probe Fluo 3-AM (5 μM; excitation at 506 nm and emission at 526 nm) (Beyotime, Hangzhou, China) in Hank’s buffer at 37 °C for 30 min. After treatment, the cells were washed once with Hank’s buffer and subsequently stimulated with DP7 (40 µg/ml) for 15 min or 30 min. Fluorescence was measured by a Celligo® imaging cytometer. The Ca^2+ levels are represented by the mean fluorescence intensity of individual cells.

[3] = test system: BMDCs; experiment: RNA-Seq analysis of BMDCs challenged with DP7; assay type: cell-based, mouse; settings: DP7 30 min vs control
[4] = test system: BMDCs; experiment: BMDC maturation surface markers (flow cytometry); assay type: cell-based, mouse; settings: CD11c+ BMDCs, 16 h, DP7 40 µg/ml, CpG 20 µg/ml
Method: To study the effect of the CpG/DP7 complex on BMDCs, BMDCs were incubated with DP7 (40 µg/ml), CpG (20 µg/ml) or the CpG/DP7 combination for 16 h, stained with APC-anti-Mouse CD11c (Clone HL3; BD Biosciences Cat# 550261), FITC-anti-mouse-CD40 (Clone 3/23; BD Biosciences Cat# 561845), PerCP-Cy5.5-anti-mouse-CD80(clone 16-10A1; BD Biosciences Cat# 560526) or FITC-anti-mouse-CD86 (clone GL1; BD Biosciences Cat# 561962). BMDCs were gated as CD11c^+ and analyzed for CD40, CD80, CD86 expression by NovoExpress software (ACEA Biosciences, Inc.).

[5] = test system: JAWSII cells; experiment: Western blotting of Erk1/2 phosphorylation in JAWSII cells; assay type: cell-based, mouse
From the text: Protein extracts from each sample were separated by 12% SDS-PAGE and transferred onto polyvinylidene fluoride membranes (Millipore, Billerica, MA). The membranes were blocked with 5% non-fat milk. Then, the protein bands were probed with primary antibodies against NF-κB p65 XP® Rabbit mAb (clone D14E12; Cell Signaling Technology Cat#8242), Phospho-NF-κB p65 (Ser536) Rabbit mAb (clone 93H1; Cell Signaling Technology Cat#3033), Erk1/2 Rabbit mAb (clone 137F5; Cell Signaling Technology Cat#4695) and Phospho- Erk1/2 (Thr202/Tyr204) XP® Rabbit mAb (clone D13.14.4E; Cell Signaling Technology Cat#4370) overnight at 4 °C. Then the membranes were incubated with horseradish peroxidase-conjugated goat anti-rabbit IgG (1:3000; Cell Signaling Technology Cat#7074). The blots derive from the same experiment were processed in parallel. The full, uncropped blot with molecular weight marker are shown in Supplementary Fig. 9.

[6] = test system: C57BL/6 mice; experiment: Leukocyte recruitment to peritoneal lavage; assay type: in vivo, mouse; settings: C57BL/6, 200 μg i.p., 24 h post-injection, N = 5, vs saline
Method: C57BL/6 mice (N = 5) were intraperitoneally injected with 200 μg DP7, DP8, or DP10. An equal volume of sterile saline served as a control. Cells in the peritoneal lavage were collected and counted at 24 h postinjection. To analyze the recruitment of leukocytes, cells were stained with PE-anti-mouse-GR-1(clone RB6-8C5; BD Biosciences Cat# 553128), APC-anti-mouse-F4/80 (clone T45-2342; BD Biosciences Cat# 566787) or PE-anti-CD11b (clone M1/70; BD Biosciences Cat# 557397) at 4 °C for 30 min and then detected using a BD FACSCalibur (BD Biosciences, San Jose, CA). Neutrophils, inflammatory monocytes and macrophages were gated as Gr1^+F4/80^−, F4/80^+Gr1^+, and F4/80^+CD11b^+ cells, respectively.

[7] = test system: GPR35; experiment: Receptor internalization assay; assay type: cell-based, mouse; settings: BMDCs, DP7 40 μg/ml, 30 min, immunofluorescence; similar in JASWII and RAW264.7 cells
Method: BMDCs (1 × 10^5) were plated on a microscope cover glass and cultured at 37 °C overnight. The next day, the cells were stimulated with 40 μg/ml DP7 at 37 °C for 30 min and then fixed in 4% paraformaldehyde in PBS at room temperature for 15 min. After washing with PBS 3 times, the BMDCs were blocked and permeabilized in buffer containing 0.1% bovine serum albumin (BSA), 0.5% Triton X-100, and 4% goat serum in PBS for 1 h. Afterward, the BMDCs were incubated with goat anti-GPR35 (clone M-14; Santa Cruz Biotechnology Cat# sc-79507; 1:100) in 3% BSA/PBS buffer at 4 °C for 16 h, followed by staining with the FITC-labeled anti-goat IgG (H + L) secondary antibody (1:100, ZSGB-BIO, Beijing, China) in 3% BSA/PBS buffer at 37 °C for 1 h. BMDCs were finally stained with DAPI and stored at 4 °C until imaging. Confocal imaging was performed with an LSM 800 Zeiss confocal microscope.

O=C1NC(=O)/C(=C\c2ccc3nccnc3c2)S1 [AS-605240]
effect of inhibitor on DP7-induced mRNA expression of transcription factors [1]: significantly suppressed

Cc1ccc(-n2nc(C(C)(C)C)cc2NC(=O)Nc2ccc(OCCN3CCOCC3)c3ccccc23)cc1 [BIBR796]
effect of inhibitor on DP7-induced mRNA expression of transcription factors [1]: little or no inhibitory effect

O=c1cc(N2CCOCC2)oc2c(-c3ccccc3)cccc12 [LY294002]
effect of inhibitor on DP7-induced mRNA expression of transcription factors [1]: little or no inhibitory effect

CCOc1cc(N2CCC(O)CC2)ccc1Nc1ncc2c(n1)N(C)c1ccccc1C(=O)N2C [XMD8-92]
effect of inhibitor on DP7-induced mRNA expression of transcription factors [1]: little or no inhibitory effect

Cn1cnc2c(F)c(Nc3ccc(Br)cc3Cl)c(C(=O)NOCCO)cc21 [selumetinib]
effect of inhibitor on DP7-induced mRNA expression of transcription factors [1]: significantly suppressed

CN1CCN(c2nc(C3=C(c4c[nH]c5ccccc45)C(=O)NC3=O)c3ccccc3n2)CC1 [sotrastaurin]
effect of inhibitor on DP7-induced mRNA expression of transcription factors [1]: significantly suppressed

Oc1c2ccccc2c2c3c(cccc13)N=N2 [sp600125]
effect of inhibitor on DP7-induced mRNA expression of transcription factors [1]: little or no inhibitory effect

VQWRIRVAVIRK [DP7]
expression of Egr1, Egr2, Egr3, c-Fos, Fosb and Nr4a1 mRNA ([1]; DP7 40 μg/ml, 30 min, vs nonstimulated): elevated expression | intracellular Ca2+ levels [2]: elevation | Fold change, Akap9 [3]: 2.08 | Fold change, Arap2 [3]: 2.02 | Fold change, Atxn1l [3]: 2.04 | Fold change, Btg2 [3]: 2.47 | Fold change, Ccdc77 [3]: 2.06 | Fold change, Ccno [3]: 2.1 | Fold change, Clec4b2 [3]: 2.82 | Fold change, Depdc5 [3]: 2.01 | Fold change, Dgkh [3]: 2.4 | Fold change, Egr1 [3]: 16.63 | Fold change, Egr2 [3]: 2.4 | Fold change, Egr3 [3]: 15.7 | Fold change, Ethe1 [3]: 2.89 | Fold change, F3 [3]: 2.23 | Fold change, Fbxw7 [3]: 2.25 | Fold change, Fos [3]: 6.34 | Fold change, Fosb [3]: 114.79 | Fold change, Gm6377 [3]: 2.68 | Fold change, Gm9159 [3]: 2.03 | Fold change, Gm12359 [3]: 2.13 | Fold change, Gpr35 [3]: 2.2 | Fold change, Gpr52 [3]: 3.32 | Fold change, Gsta1 [3]: 3.08 | Fold change, Ier2 [3]: 3.15 | Fold change, Igj [3]: 2.68 | Fold change, Jmjd1c [3]: 2.09 | Fold change, Klhl15 [3]: 3.73 | Fold change, Lmo1 [3]: 2.81 | Fold change, Lrrc40 [3]: 2.19 | Fold change, Nr4a1 [3]: 19.81 | Fold change, Nr4a2 [3]: 2.02 | Fold change, Osm [3]: 2.42 | Fold change, Parp6 [3]: 2.3 | Fold change, Perp [3]: 2.05 | Fold change, Phf8 [3]: 2.17 | Fold change, Plk3 [3]: 2.75 | Fold change, Prph [3]: 2.22 | Fold change, Prrg4 [3]: 2.05 | Fold change, Slc38a9 [3]: 2.15 | Fold change, Suco [3]: 2.19 | Fold change, Szt2 [3]: 2.01 | Fold change, Tjp1 [3]: 3.44 | Fold change, Tmem51 [3]: 2.05 | Fold change, Tnfaip6 [3]: 2.01 | Fold change, Trib1 [3]: 2.69 | CD40-FITC positive BMDCs [4]: 1.1% | CD80-PerCP-Cy5.5 positive BMDCs [4]: 28.9% | CD86-FITC positive BMDCs [4]: 36.2% | Erk1/2 phosphorylation ([5]; JAWSII cells, DP7 30 and 60 min, western blotting): enhancement | number of macrophages in the peritoneal lavage [6]: modest but nonsignificant increase | numbers of monocytes and neutrophils in the peritoneal lavage [6]: significant increase | GPR35 localisation after stimulation [7]: internalization of GPR35 into the cytoplasm

pertussis toxin [PTX, reference compound]
effect of inhibitor on DP7-induced mRNA expression of transcription factors [1]: significantly suppressed | effect on activation of pErk1/2 by DP7 ([5]; JAWSII cells pretreated with PTX, then DP7 30 and 60 min): partially abolished
